Data from publication PMC6576746, “Rational discovery of dual-indication multi-target PDE/Kinase inhibitor for precision anti-cancer therapy using structural systems pharmacology” (PLoS Computational Biology, 2019).

What was measured:
Test in all cases: biochemical
Parameters in all cases: DiscoverX KinomeScan competition binding assay across human kinases; per cent of control at 10 and 100 uM
[1] = molecular target: T1, ABL1(F317I)-phosphorylated (Homo sapiens, UniProt P00519, F317I); conditions: competition binding, % of control; read-out: Percent Control (100 uM Levosimendan)
T1 construct: phosphorylated
Procedure, shortened: (§1)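 KinomeScan competition binding was run across a human kinase panel at 10 μM and 100 μM levosimendan. Results are %control = (test − positive control)/(negative control − positive control) × 100.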

[2] = molecular target: T2, ABL1-phosphorylated (Homo sapiens, UniProt P00519); conditions: competition binding, % of control
T2 construct: phosphorylated
Procedure, shortened: as §1

[3] = molecular target: ABL2 (Homo sapiens, UniProt P42684); conditions: competition binding, % of control; read-out: Percent Control (100 uM Levosimendan)
Procedure, shortened: as §1

[4] = molecular target: DAPK2 (Homo sapiens, UniProt Q9UIK4); conditions: competition binding, % of control; read-out: Percent Control (100 uM Levosimendan)
Procedure, shortened: as §1

[5] = molecular target: T3, DCAMKL3 (Homo sapiens, UniProt Q9C098); conditions: competition binding, % of control; read-out: Percent Control (100 uM Levosimendan)
T3 construct: gene DCLK3
Procedure, shortened: as §1

[6] = molecular target: T4, DMPK2 (Homo sapiens, UniProt Q6DT37); conditions: competition binding, % of control; read-out: Percent Control (100 uM Levosimendan)
T4 construct: gene CDC42BPG
Procedure, shortened: as §1

[7] = molecular target: IRAK4 (Homo sapiens, UniProt Q9NWZ3); conditions: competition binding, % of control; read-out: Percent Control (100 uM Levosimendan)
Procedure, shortened: as §1

[8] = molecular target: T5, LKB1 (Homo sapiens, UniProt Q15831); conditions: competition binding, % of control; read-out: Percent Control (100 uM Levosimendan)
T5 construct: gene STK11
Procedure, shortened: as §1

[9] = molecular target: MAP4K5 (Homo sapiens, UniProt Q9Y4K4); conditions: competition binding, % of control; read-out: Percent Control (100 uM Levosimendan)
Procedure, shortened: as §1

[10] = molecular target: T6, MINK (Homo sapiens, UniProt Q8N4C8); conditions: competition binding, % of control
T6 construct: gene MINK1
Procedure, shortened: as §1

[11] = molecular target: MYO3A (Homo sapiens, UniProt Q8NEV4); conditions: competition binding, % of control; read-out: Percent Control (100 uM Levosimendan)
Procedure, shortened: as §1

[12] = molecular target: PIKFYVE (Homo sapiens, UniProt Q9Y2I7); conditions: competition binding, % of control; read-out: Percent Control (100 uM Levosimendan)
Procedure, shortened: as §1

[13] = molecular target: PLK1 (Homo sapiens, UniProt P53350); conditions: competition binding, % of control; read-out: Percent Control (100 uM Levosimendan)
Procedure, shortened: as §1

[14] = molecular target: RET(V804L) (Homo sapiens, UniProt P07949, V804L); conditions: competition binding, % of control; read-out: Percent Control (100 uM Levosimendan)
Procedure, shortened: as §1

[15] = molecular target: SBK1 (Homo sapiens, UniProt Q52WX2); conditions: competition binding, % of control; read-out: Percent Control (100 uM Levosimendan)
Procedure, shortened: as §1

[16] = molecular target: SGK3 (Homo sapiens, UniProt Q96BR1); conditions: competition binding, % of control; read-out: Percent Control (100 uM Levosimendan)
Procedure, shortened: as §1

[17] = molecular target: SLK (Homo sapiens, UniProt Q9H2G2); conditions: competition binding, % of control; read-out: Percent Control (100 uM Levosimendan)
Procedure, shortened: as §1

[18] = molecular target: T7, TRKC (Homo sapiens, UniProt Q16288); conditions: competition binding, % of control; read-out: Percent Control (100 uM Levosimendan)
T7 construct: gene NTRK3
Procedure, shortened: as §1

[19] = molecular target: T8, VEGFR2 (Homo sapiens, UniProt P35968); conditions: competition binding, % of control; read-out: Percent Control (100 uM Levosimendan)
T8 construct: gene KDR
Procedure, shortened: as §1

[20] = read-out: Percent Control (10 uM Levosimendan)
[21] = read-out: Percent Control (100 uM Levosimendan)

T6 sequence (Q8N4C8 whole entry): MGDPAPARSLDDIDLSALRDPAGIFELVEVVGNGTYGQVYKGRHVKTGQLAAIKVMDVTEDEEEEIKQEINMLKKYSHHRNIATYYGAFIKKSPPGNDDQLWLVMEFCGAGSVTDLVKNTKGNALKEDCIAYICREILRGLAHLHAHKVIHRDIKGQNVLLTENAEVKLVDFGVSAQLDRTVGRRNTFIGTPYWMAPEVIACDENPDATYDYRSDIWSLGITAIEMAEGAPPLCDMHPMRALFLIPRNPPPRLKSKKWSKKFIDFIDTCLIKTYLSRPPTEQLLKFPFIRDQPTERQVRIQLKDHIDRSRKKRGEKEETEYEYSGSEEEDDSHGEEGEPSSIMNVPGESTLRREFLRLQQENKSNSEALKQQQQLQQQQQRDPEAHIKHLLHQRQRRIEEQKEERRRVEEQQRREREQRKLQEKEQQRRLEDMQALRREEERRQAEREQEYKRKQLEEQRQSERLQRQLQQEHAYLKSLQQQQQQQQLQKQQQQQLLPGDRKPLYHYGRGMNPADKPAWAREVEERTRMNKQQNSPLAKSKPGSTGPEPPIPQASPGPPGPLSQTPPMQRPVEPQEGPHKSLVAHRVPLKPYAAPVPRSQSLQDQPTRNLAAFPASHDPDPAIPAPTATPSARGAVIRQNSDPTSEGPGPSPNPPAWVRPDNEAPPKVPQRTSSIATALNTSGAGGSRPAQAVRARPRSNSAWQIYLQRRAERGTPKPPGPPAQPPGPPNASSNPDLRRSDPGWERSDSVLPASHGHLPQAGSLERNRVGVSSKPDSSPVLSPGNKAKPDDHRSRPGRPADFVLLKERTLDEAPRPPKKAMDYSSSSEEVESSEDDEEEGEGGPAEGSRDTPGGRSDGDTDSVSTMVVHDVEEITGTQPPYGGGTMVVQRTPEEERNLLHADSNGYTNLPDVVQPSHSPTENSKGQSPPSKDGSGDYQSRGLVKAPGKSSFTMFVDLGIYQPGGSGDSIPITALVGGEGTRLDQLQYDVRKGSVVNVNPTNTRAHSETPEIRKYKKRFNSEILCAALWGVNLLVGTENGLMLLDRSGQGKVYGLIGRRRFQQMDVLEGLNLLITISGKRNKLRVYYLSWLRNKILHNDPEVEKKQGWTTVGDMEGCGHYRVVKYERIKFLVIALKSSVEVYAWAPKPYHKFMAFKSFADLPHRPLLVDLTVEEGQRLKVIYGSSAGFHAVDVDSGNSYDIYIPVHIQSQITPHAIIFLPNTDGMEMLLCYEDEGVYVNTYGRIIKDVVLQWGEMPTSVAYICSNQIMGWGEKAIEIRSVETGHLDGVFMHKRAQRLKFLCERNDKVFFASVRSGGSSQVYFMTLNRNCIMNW
T2 sequence (P00519 whole entry): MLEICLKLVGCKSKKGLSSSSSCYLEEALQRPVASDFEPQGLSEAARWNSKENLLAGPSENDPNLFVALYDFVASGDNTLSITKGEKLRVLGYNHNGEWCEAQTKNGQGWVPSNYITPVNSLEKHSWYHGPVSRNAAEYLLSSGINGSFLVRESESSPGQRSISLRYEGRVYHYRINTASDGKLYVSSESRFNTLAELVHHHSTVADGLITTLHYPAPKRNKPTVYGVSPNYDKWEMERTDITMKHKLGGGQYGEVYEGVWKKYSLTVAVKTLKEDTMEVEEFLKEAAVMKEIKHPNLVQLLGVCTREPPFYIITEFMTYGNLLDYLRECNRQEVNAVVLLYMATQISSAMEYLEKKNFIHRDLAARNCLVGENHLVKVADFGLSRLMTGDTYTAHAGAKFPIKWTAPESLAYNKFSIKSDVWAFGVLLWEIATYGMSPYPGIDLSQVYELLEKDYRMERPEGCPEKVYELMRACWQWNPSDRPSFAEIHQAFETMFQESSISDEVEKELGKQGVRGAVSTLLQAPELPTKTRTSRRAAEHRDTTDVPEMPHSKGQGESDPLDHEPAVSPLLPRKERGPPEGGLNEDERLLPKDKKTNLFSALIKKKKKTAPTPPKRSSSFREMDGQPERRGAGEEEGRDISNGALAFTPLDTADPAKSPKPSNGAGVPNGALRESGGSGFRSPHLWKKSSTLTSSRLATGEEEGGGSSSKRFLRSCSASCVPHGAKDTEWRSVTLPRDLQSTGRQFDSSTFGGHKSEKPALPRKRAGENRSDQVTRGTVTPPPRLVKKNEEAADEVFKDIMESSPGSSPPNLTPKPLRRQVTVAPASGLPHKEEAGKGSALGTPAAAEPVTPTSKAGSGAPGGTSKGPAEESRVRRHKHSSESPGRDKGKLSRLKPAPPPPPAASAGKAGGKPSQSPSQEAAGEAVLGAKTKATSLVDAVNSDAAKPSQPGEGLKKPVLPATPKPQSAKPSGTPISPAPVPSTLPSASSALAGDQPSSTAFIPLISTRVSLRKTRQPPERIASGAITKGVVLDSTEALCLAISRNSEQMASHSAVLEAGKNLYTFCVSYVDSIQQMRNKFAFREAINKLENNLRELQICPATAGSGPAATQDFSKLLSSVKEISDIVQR
T1 sequence (P00519 whole entry F317I): as the sequence (P00519 whole entry) above, with F317I counted along it
Sequence of SGK3 (Q96BR1 whole entry): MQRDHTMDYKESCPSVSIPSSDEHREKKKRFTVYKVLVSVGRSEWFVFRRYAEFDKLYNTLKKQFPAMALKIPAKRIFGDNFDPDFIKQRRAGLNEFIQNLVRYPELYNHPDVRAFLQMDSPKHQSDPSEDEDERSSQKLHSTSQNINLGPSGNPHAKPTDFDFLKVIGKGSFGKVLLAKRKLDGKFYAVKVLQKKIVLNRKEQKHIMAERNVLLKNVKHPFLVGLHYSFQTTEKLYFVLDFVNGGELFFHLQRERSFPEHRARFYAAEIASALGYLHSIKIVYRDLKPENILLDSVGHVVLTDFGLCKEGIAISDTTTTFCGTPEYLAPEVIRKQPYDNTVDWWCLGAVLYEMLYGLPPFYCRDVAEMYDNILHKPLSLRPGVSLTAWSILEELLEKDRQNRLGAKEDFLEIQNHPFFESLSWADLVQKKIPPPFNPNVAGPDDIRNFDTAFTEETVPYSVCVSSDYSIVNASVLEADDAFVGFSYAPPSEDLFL
Sequence of SBK1 (Q52WX2 whole entry): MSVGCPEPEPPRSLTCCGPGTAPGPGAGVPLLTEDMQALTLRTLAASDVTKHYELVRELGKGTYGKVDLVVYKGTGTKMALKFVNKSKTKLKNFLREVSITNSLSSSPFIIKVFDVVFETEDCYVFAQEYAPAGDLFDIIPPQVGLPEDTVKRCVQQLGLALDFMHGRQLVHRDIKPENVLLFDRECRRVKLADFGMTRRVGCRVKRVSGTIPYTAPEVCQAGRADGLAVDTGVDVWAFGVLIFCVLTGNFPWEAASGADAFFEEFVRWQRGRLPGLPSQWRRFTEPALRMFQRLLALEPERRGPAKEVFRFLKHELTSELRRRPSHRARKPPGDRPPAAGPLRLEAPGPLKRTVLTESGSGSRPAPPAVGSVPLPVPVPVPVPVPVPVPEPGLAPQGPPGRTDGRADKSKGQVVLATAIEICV
T4 sequence (Q6DT37 whole entry): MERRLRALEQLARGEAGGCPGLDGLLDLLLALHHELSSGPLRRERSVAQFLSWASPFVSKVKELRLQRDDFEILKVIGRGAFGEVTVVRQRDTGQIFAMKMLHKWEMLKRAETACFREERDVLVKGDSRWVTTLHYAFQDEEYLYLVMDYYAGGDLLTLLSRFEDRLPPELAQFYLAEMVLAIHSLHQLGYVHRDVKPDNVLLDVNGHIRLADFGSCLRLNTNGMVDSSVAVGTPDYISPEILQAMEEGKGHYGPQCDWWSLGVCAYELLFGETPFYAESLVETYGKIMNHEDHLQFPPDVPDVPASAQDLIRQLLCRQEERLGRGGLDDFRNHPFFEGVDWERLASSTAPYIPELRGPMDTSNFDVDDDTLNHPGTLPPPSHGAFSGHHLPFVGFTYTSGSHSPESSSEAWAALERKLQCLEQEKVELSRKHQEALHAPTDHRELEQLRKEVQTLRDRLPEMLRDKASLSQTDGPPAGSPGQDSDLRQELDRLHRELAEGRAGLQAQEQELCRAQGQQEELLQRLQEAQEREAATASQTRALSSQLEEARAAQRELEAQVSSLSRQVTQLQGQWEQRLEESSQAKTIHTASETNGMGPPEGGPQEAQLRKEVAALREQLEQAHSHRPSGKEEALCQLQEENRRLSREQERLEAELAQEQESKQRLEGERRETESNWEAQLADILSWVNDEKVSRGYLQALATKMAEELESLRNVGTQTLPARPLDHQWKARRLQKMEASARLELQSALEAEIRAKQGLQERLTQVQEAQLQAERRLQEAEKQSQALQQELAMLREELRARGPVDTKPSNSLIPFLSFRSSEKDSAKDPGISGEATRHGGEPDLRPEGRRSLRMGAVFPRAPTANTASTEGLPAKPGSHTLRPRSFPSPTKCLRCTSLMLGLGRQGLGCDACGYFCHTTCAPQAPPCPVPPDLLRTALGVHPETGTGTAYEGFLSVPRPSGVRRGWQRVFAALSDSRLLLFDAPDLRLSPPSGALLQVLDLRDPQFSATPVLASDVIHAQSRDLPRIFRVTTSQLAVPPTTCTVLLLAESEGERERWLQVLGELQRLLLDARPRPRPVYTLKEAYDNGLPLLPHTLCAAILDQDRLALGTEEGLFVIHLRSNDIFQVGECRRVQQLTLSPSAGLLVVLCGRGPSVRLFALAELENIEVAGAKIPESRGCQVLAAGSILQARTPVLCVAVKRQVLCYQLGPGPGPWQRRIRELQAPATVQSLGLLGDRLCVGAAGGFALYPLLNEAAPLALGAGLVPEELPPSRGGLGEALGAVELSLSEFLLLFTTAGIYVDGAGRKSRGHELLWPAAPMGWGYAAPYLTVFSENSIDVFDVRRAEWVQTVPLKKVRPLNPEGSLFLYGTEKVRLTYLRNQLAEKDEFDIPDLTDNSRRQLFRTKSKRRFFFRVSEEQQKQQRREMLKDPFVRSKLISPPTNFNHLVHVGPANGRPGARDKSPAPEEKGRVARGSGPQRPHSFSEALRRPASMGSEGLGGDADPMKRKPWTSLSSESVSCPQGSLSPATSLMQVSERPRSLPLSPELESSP

remaining binding at 100 µM [1]: 100%
remaining binding at 10 µM [2, 20]: 100%
remaining binding at 100 µM [2, 21]: 37%
remaining binding at 100 µM [3]: 89%
remaining binding at 100 µM [4]: 73%
remaining binding at 100 µM [5]: 100%
remaining binding at 100 µM [6]: 70%
remaining binding at 100 µM [7]: 80%
remaining binding at 100 µM [8]: 100%
remaining binding at 100 µM [9]: 100%
remaining binding at 10 µM [10, 20]: 77%
remaining binding at 100 µM [10, 21]: 26%
remaining binding at 100 µM [11]: 97%
remaining binding at 100 µM [12]: 57%
remaining binding at 100 µM [13]: 100%
remaining binding at 100 µM [14]: 92%
remaining binding at 100 µM [15]: 78%
remaining binding at 100 µM [16]: 92%
remaining binding at 100 µM [17]: 85%
remaining binding at 100 µM [18]: 65%
remaining binding at 100 µM [19]: 100%
SMILES: C[C@@H]1CC(=O)NN=C1c1ccc(NN=C(C#N)C#N)cc1 [levosimendan]
